Measured values as given in patent US20100119587A1, “SOLID LIPIDIC […] AS PHARMACEUTICALLY ACCEPTABLE FILLERS OR […] FOR INHALATION” (UNIVERSITE LIBRE DE BRUXELLES, priority 2004, published 2010).
Values after ≈ are worked out from the molar mass of the structure shown.

What was measured:
Type in all cases: physicochemical
[1] = Particle size distribution by laser diffraction (Mastersizer 2000, dry sampling)
Method: For each SLP composition, the particle size distribution is measured by laser diffractometry, using a dry sampling system with a suitable SOP (Standard Operating Procedure), (Scirocco®, Mastersizer 2000, Malvern, UK).
The size distributions are expressed in terms of the mass median diameter d(0.5), i.e. the size in microns which 50% of the sample is smaller and 50% is larger, and in terms of the volume (mass) mean diameter D[4,3].

[2] = In vitro deposition test, FPD/FPF by Multi-stage Liquid Impinger (tobramycin formulations); conditions: Table 11, loaded dose = 15 mg, Cyclohaler 100 l/min 2.4 s, n = 3
Method: The Fine Particle Dose has been determined by the method described in the European Pharmacopoeia 4 for the aerodynamic assessment of fine particle, using Apparatus C—Multi-stage Liquid Impinger (MsLI) […] The flow rate was adjusted to a pressure drop of 4 kPa, as typical for inspiration by a patient, resulting in a flow rate of 100 l/min during 2.4 seconds. At least 3 FPD determinations were performed on each formulation and analysis were carried out by a suitable and validated analytical HPLC method. In order to increase the UV absorptivity of the molecule, a derivatization method was applied. The suitable and validated quantification method is described in the USP 25. The HPLC system consisted of a High Performance Liquid Chromatography system (HP 1100 series, Agilent technologies, Belgium), equipped with a quartenary pump, an autosampler and a variable wavelength UV detector set at 360 nm. The separation system was a 39 cm×3.9 mm stainless steel (5 μm particle size) reversed-phase C18 column (Alltima, Alltech, Belgium). Samples of 20 μl volume were injected. The mobile phase was prepared by dissolving 2 g of Tris(hydroxymethyl)aminomethane in 800 ml of water. […] The mass of test substance deposited on each stage was determined from the HPLC analysis of the recovered solutions. […] It is considered to be directly proportional to the amount of drug able to reach the pulmonary tract in vivo, and consequently, the higher the value FPD, the higher the estimated lung deposition.

[3] = Solubility in isopropanol; conditions: organic solvent or mixture

d (0.5) ([1]; Table 10, Example 13, dry powder form, mean ± S.D., n = 3): 1.29 ± 0.02 μm
D [4, 3] ([1]; Table 10, Example 13, dry powder form, n = 3): 1.54 ± 0.01 μm
% <5.0 μm ([1]; Table 10, Example 13, n = 3): 99.3 ± 0.2%
FPD [2]: 7.2 ± 0.6 mg
FPF [2]: 48.1 ± 0.4%
FPF ([2]; listed as uncoated micronized tobramycin): around 48%
solubility [3]: 50 µg/mL (≈ 107 µM)
Compound: NC[C@H]1O[C@H](O[C@H]2[C@H](O)[C@@H](O[C@H]3O[C@H](CO)[C@@H](O)[C@H](N)[C@H]3O)[C@H](N)C[C@@H]2N)[C@H](N)C[C@@H]1O [Tobra μ, tobramycin]
